Reference: patent EP2389922A1, “Cyclohexyl carbamate compounds as anti-ageing actives” (Symrise AG, priority 2010, dated 2011)

How the values were obtained:
[1] = tested on: SIRT1; test: SIRT1 assay: stimulation of SIRT1 expression in NHDF cells (immunofluorescence); type: cell-based, human; conditions: concentration 30 µM; NHDF cells treated 48 h; mean values of at least 2 independent tests
Procedure: NHDF cells (normal human dermal fibroblasts) were seeded in 96-well plates. After 24 h cultivation at 37 °C and 5% CO2 in DMEM (Dulbecco's Modified Eagle Medium), cells were treated with test substances for another 48 h. After washing the cells with PBS (phosphate buffered saline), the cells were fixed with paraformaldehyde and permeabilized. Then they were washed again and blocked with BSA (bovine serum albumen), followed by incubation with […]. After extensive washing, the fluorescence is measured in a microplate reader and fluorescence images were recorded on a fluorescence microscope with an attached […]. The stimulation of SIRT1 expression was calculated by: StimulationofSIRT1expression[%] = ((RFUtestesubstance−RFUbackground)/(RFUcontrol−RFUbackground)×100)−100 [formula] RFU test substance = relative fluorescent units of the wells with test substance, stained completely RFU control = relative fluorescent units of the wells without test substance, stained completely RFU background = relative fluorescent units of the wells without test substance, stained only with secondary antibody. Table Example 2: Stimulation of SIRT1 expression by the individual substances (mean values of at least 2 independent tests)

[2] = target: T1, proteasome (Homo sapiens, UniProt P28074); test: Measurement of proteasome activity using cell lysates (HaCaT cells, MCA liberation); type: biochemical; conditions: HaCaT cell lysate, relative to DMSO control (0 mM = 100 %), mean values of 3 independent tests
T1 construct: endogenous in cells; host or cells: HaCaT human keratinocytes (cell lysate)
Procedure: To determine proteasome activity in cell lysate, human keratinocyte cell lines (HaCaT cells) were seeded out in Petri-dishes (area: 22.1 cm^2) and harvested when they reached confluence. Isolation of the pure cell lysate included cell washing, incubation and homogenization in lysis buffer (250mM sucrose, 25mM HEPES (4-(2-hydroxyethyl)-1-piperazineethanesulfonic acid), 10mM MgCl2*6H2O, 1.3mM EDTA) and final cell lysis with liquid nitrogen. Determination of proteasome activity is based on the liberation of MCA and the corresponding fluorescence like described above in example 3.1. Proteasome activity was calculated relative to DMSO control (0 mM). Table Example 3.2: Measurement of proteasome activity of BIO1272 using cellular extracts (mean values of 3 independent tests)

[3] = target: isolated 20S proteasome (Homo sapiens, UniProt P28074); test: Measurement of proteasome activity using isolated proteasome (chymotrypsin-like activity, MCA liberation); type: biochemical; conditions: mean values of 3 independent tests
Source text: The method used herein to investigate the proteasome stimulating activity of a substance is based on the measurement of the 20S proteasome core activity. To detect this activity, the isolated 20S proteasome reacts with an oligopeptide, which is bound to a fluorochrome. With its chymotrypsin-like proteolytic activity, the proteasome degrades the oligopeptide and liberates the fluorochrome. For this assay 4-methyl-coumaryl-amide (MCA) was used as fluorochrome. Liberation of MCA correlates linearly with the proteasome activity. MCA wass detected using an excitation of 360 nm and an emission of 460 nm.
For interpretation, the measured proteasome activities / intensities of fluorescence were compared with pure MCA standards at distinct concentrations.
Two different controls were used for each assay. One "ordinary" control (C) which consisted of isolated proteasome alone, and a DMSO-control (DC). DC was necessary because all substances were diluted in DMSO. Proteasome activity was calculated relative to DMSO control (0 mM). Table Example 3.1: Measurement of proteasome activity of BIO1272 using isolated proteasome (mean values of 3 independent tests)

[4] = tested on: fish; conditions: cited from earlier work
[5] = tested on: yeast; conditions: cited from earlier work

Row | Compound | Stimulation of SIRT1 expression [1] | further results
1 | CCCCNC(=O)O[C@@H]1C[C@H](C)CC[C@H]1C(C)C [BIO1267, n-Butyl-carbamic acid (1R,2S,5R)-2-isopropyl-5-methyl-cyclohexyl ester] | 29% | 
2 | CCCCCCNC(=O)O[C@@H]1C[C@H](C)CC[C@H]1C(C)C [BIO1271, Hexyl-carbamic acid (1R,2S,5R)-2-isopropyl-5-methyl-cyclohexyl ester] | 66% | 
3 | CC(C)NC(=O)O[C@@H]1C[C@H](C)CC[C@H]1C(C)C [BIO1272, Isopropyl-carbamic acid (1R,2S,5R)-2-isopropyl-5-methyl-cyclohexyl ester] |  | Relative proteasome activity [%] ([2]; 5mM BIO1272): 105%; Relative proteasome activity [%] ([2]; 10mM BIO1272): 120%; Relative proteasome activity [%] ([2]; 20mM BIO1272): 140%; Relative proteasome activity [%] ([3]; 5mM BIO1272, relative to DMSO control (0 mM = 100 %)): 125%; Relative proteasome activity [%] ([3]; 10mM BIO1272, relative to DMSO control (0 mM = 100 %)): 210%; Relative proteasome activity [%] ([3]; 20mM BIO1272, relative to DMSO control (0 mM = 100 %)): 250%
4 | CC(C)[C@@H]1CC[C@@H](C)C[C@H]1OC(=O)Nc1ccccc1 [BIO1580, Phenyl-carbamic acid (1R,2S,5R)-2-isopropyl-5-methyl-cyclohexyl ester] | 117% | 
5 | CCCCNC(=O)OC1C(C)CCC(C)C1C (stereo not shown) [BIO1617, n-Butyl-carbamic acid 2,3,6-trimethyl-cyclohexyl ester] | 24% | 
6 | CCc1ccc(NC(=O)OC2CC(C)CC(C)C2)cc1 (stereo not shown) [BIO1823, (4-Ethyl-phenyl)-carbamic acid 3,5-dimethyl-cyclohexyl ester] | 66% | 
7 | CCCCNC(=O)OC1CCCCC1C(C)C (stereo not shown) [BIO1841, n-Butyl-carbamic acid 2-isopropyl-cyclohexyl ester] | 14% | 
8 | CCC(C)NC(=O)OC1CCCC(C)C1C (stereo not shown) [BIO1845, sec-Butyl-carbamic acid 2,3-dimethyl-cyclohexyl ester] | 52% | 
9 | CCCCNC(=O)O[C@H]1C[C@@H](C)CC[C@@H]1C(C)C [BIO1860, Butyl-carbamic acid (1S,2R,5S)-2-isopropyl-5-methyl-cyclohexyl ester] | 47% | 
10 | Oc1ccc(C=Cc2cc(O)cc(O)c2)cc1 [Resveratrol] |  | extending lifespan [4]: 60%; extending lifespan [5]: 70%
